US20220401429A1, “USE OF ANAMORELIN TO TREAT CANCER-RELATED FATIGUE” (Helsinn Healthcare SA, priority 2021, published 2022)
Where two headings read alike, the source gives them in different places.

Legend:
[1] = system: patients with advanced cancer; test: Global Symptom Evaluation, Example 1 study; assay type: in vivo, human; details: time point not clearly stated; 100 mg oral daily + physical activity + nutritional counseling
Protocol: (§1) In this single arm study, 38 patients were intended for treatment with anamorelin for 6 weeks with an optional extension phase of 6 more weeks based on tolerability and safety and patient willingness. Patients received anamorelin 100 mg tablets and physical activity for 6 weeks for the intervention phase. Patients took 1 tablet orally while fasting (at least 1 hour before a meal).

[2] = system: patients with advanced cancer; test: Adverse events, Example 1 study; assay type: in vivo, human; details: 100 mg oral daily, 6 weeks with optional 6 week extension
Protocol: as §1

[3] = system: patients with advanced cancer; test: FACIT-F fatigue subscale, single arm study of anamorelin (Example 1); assay type: in vivo, human; details: for FACIT-F Fatigue Subscale, change, Mean (±SD): change from baseline, 100 mg oral daily + physical activity + nutritional counseling
Excerpt: This study was undertaken to isolate and evaluate anamorelin's effect on fatigue, energy expenditure, and other side effects of cancer in a cancer-stricken population, by including in the study population only those patients suffering significant levels of fatigue and inflammatory activity, excluding from the study population confounding factors such as depression and anemia, and controlling for a consistent level of nutrition and physical exercise.
as §1
• diagnosis of advanced cancer (metastatic or recurrent incurable solid tumors excluding prostate cancer) • fatigue on FACIT-F subscale of ≤34 on a 0 to 52 scale [in which 52=no fatigue and 0=worst possible fatigue] • CRP ≥3 mg/L* in the absence of any other more likely cause of increased CRP like an infection or an autoimmune disorder • unintentional weight loss of from 2% to 15% at any time within the previous 12 months • No evidence of moderate to severe depression as determined by a HADS depression score of ≤13 • Hemoglobin level ≥9 g/dL
A primary objective of the study was to examine the effects of anamorelin and standardized physical activity and nutritional counseling on changes in the Functional Assessment of […] (FACIT-F) subscale score at Day 43±3 days compared to baseline in patients with advanced cancer receiving oral anamorelin 100 mg daily and standardized physical activity and nutritional counseling.
FACIT-F is a well-validated QOL instrument in cancer patients (Cella, Tulsky et al. 1993). The 13-item fatigue subscale is a patient-rated assessment of intensity of fatigue and its related symptoms on a scale of 0 to 4.

[4] = system: Patients With Non—Small Cell Lung Cancer and Cachexia; details: study by Katakami and Uchino et al. 2018; cited from earlier work
[5] = system: patients with advanced cancer; test: Pittsburgh Sleep Quality Index (PSQI), Example 1 study; assay type: in vivo, human; details: 100 mg oral daily + physical activity + nutritional counseling
Protocol: as §1

[6] = system: cachectic patients with non-small cell lung cancer; details: cited from earlier work
[7] = system: patients with advanced cancer; test: Multidimensional Fatigue Symptom Inventory-Short Form (MFSI-SF), Example 1 study; assay type: in vivo, human; details: change from baseline, 100 mg oral daily + physical activity + nutritional counseling
Protocol: as §1
Secondary objectives of the study were to examine the effects of anamorelin and standardized physical activity and nutritional counseling on Health-related quality of life and patient reported outcomes as measured by The Multidimensional Fatigue Symptom Inventory-Short Form[MFSI-SF], PROMIS-Fatigue, Hospital Anxiety Depression Scale (HADS), Edmonton Symptom Assessment Scale (ESAS), Functional Assessment of Cancer Therapy (FACT-G), and its Functional Assessment of Anorexia/Cachexia Treatment (FAACT) subscale in these patients.
MFSI-SF consists of 30 items designed to assess the multidimensional nature of fatigue(Stein, Jacobsen et al. 2004). Ratings are summed to obtain scores for 5 subscales (general fatigue, physical fatigue, emotional fatigue, mental fatigue, and vigor).

[8] = ROMANA 1 and ROMANA 2, both studies

## CN(C)N(C)C(=O)[C@@]1(Cc2ccccc2)CCCN(C(=O)[C@@H](Cc2c[nH]c3ccccc23)NC(=O)C(C)(C)N)C1 [anamorelin]
[1]
  Global Symptom Evaluation: About the same N (%): 9 (36%)
  Global Symptom Evaluation: Better N (%): 13 (52%)
  Global Symptom Evaluation: Worse N (%): 3 (12%)
[2]
  Severe (≥grade 3) adverse events related to the study drug: No severe (≥grade 3) adverse events
[3]; 43-day measure
  FACIT-F increase from baseline, linear mixed model with time as categorical variable: 4.89
[3]; Day 15 (N = 28)
  FACIT-F Fatigue Subscale, change, Mean (±SD): 3.89 (±8.71),
[3]; Day 29 (N = 28)
  FACIT-F Fatigue Subscale, change, Mean (±SD): 6.32 (±9.53),
[3]; Day 86 (N = 8)
  FACIT-F Fatigue Subscale, change, Mean (±SD): 8.13 (±12.62),
[3]; this study, FACIT-F Day 43 (Cohen's D)
  Effect size for improvement in CRF: 0.37
[3]; time effect, FIG. 1
  FACIT-F average increase over time, linear mixed model: 0.11 units per day
[4]
  Effect size for improvement in CRF: 0.057
[5]; Day 29, change from baseline
  PSQI (N = 15), change, Mean (±SD): −0.09 (±4.18),
[5]; Day 43, change from baseline
  PSQI (N = 15), change, Mean (±SD): −0.09 (±2.12),
[5]; Day 86, change from baseline
  PSQI (N = 15), change, Mean (±SD): −0.50 (±2.95),
[6]; ROMANA 1
  Effect size for improvement in CRF: 0.16
[6]; [8]
  Effect on fatigue using the FACIT-F: unable to detect a significant effect
  Effect on strength measured by handgrip strength: unable to detect a significant effect
[6]; ROMANA 2
  Effect size for improvement in CRF: 0.008
[6]; higher BMIs
  Treat fatigue and improve handgrip strength, pooled post-hoc analysis: ineffective
[6]; patients with BMI less than 20 kg/m^2
  Treat fatigue and improve handgrip strength, pooled post-hoc analysis: effective
[7]; Day 15 (N = 28)
  MFSI-SF Emotional fatigue, change, Mean (±SD): −0.43 (±2.20),
  MFSI-SF General fatigue, change, Mean (±SD): −2.25 (±4.53),
  MFSI-SF Mental fatigue, change, Mean (±SD): −0.93 (±2.57),
  MFSI-SF Physical fatigue, change, Mean (±SD): −0.71 (±3.69),
  MFSI-SF Total, change, Mean (±SD): −4.79 (±9.59),
  MFSI-SF Vigor, change, Mean (±SD): 0.46 (±2.89),
[7]; Day 29 (N = 28)
  MFSI-SF Emotional fatigue, change, Mean (±SD): 0.14 (±3.15),
  MFSI-SF General fatigue, change, Mean (±SD): −4.18 (±5.74),
  MFSI-SF Mental fatigue, change, Mean (±SD): −1.39 (±2.90),
  MFSI-SF Physical fatigue, change, Mean (±SD): −0.50 (±4.43),
  MFSI-SF Total, change, Mean (±SD): −6.32 (±12.41),
  MFSI-SF Vigor, change, Mean (±SD): 0.39 (±3.46),
[7]; Day 43 (N = 28)
  MFSI-SF Emotional fatigue, change, Mean (±SD): 1.04 (±4.36),
